Data set [1] concerns the target T1, Human Neuropeptide Y2 Receptor (Homo sapiens, UniProt P49146).
T1 construct: purchased CHEMICON HTS066M
T1 sequence (P49146 1-381): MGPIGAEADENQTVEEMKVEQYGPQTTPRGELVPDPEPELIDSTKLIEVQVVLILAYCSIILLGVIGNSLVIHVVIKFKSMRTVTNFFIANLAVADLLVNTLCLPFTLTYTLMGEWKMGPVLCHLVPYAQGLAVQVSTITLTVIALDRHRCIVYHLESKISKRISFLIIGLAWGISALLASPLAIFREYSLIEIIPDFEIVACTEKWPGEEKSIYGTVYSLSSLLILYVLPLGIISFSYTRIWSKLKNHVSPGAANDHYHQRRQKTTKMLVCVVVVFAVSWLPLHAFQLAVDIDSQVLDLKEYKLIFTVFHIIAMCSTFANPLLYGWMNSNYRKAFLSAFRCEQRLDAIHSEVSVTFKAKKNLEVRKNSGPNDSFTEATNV
Description: Radioligand binding competition assay (RLB). The note with it: Table 3, 125I-PYY(1-36) competition; read-out: Ki. In a few lines:
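Displacement of radioligand is measured after 2 h at room temperature with receptor membranes in Mg2+/Ca2+ HEPES buffer, pH 7.4. Filter-bound radioactivity is counted and IC50 obtained from curve fitting.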

The nature of another data set: Solubility determination. The note with it: for Sol6: pH 6; for Sol7: pH 7. A digest of the protocol:
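First, TFA-salt peptide was added to 0.1 M sodium diphosphate (pH 6.4 or 7.0) to 10 mg/ml and shaken 2 h at room temperature. Next, insoluble material was filtered off. Finally, filtrate and control, each 1 mg/ml in 50% acetonitrile, were compared by reversed-phase chromatography.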

*1 amine or outer side, *2 acyl side, *3 side chain or, on linkers, in order; H or OH if unused. Where a SMILES comes first, the peptide text is derived from it. Side-chain parts run from the residue outwards. The star is where a group is joined. C18 diacid = O=C(O)CCCCCCCCCCCCCCCCC(=O)*; γGlu = O=C(O)[C@H](CCC(=O)[*:2])N[*:1]; Isovaleryl = CC(C)CC(=O)*; Ahx = NCCCCCC(=O)O

For `CC(C)CC(=O)N[C@@H](C)C(=O)N1CCC[C@H]1C(=O)N[C@@H](CCC(=O)O)C(=O)N[C@@H](CCCCNC(=O)CCCCCNC(=O)CC[C@H](NC(=O)CCCCCCCCCCCCCCCCC(=O)O)C(=O)O)C(=O)N1CCC[C@H]1C(=O)N[C@@H](CCC(=O)O)C(=O)N[C@@H](CCC(=O)O)C(=O)N[C@@H](CC(=O)O)C(=O)N[C@@H](C)C(=O)N[C@@H](CO)C(=O)N[C@@H](C)C(=O)N[C@@H](CCC(=O)O)C(=O)N[C@@H](CCC(=O)O)C(=O)N[C@@H](CC(C)C)C(=O)N[C@@H](CCC(N)=O)C(=O)N[C@@H](CCC(N)=O)C(=O)N[C@@H](Cc1ccc(O)cc1)C(=O)N[C@@H](Cc1ccc(O)cc1)C(=O)N[C@H](C(=O)N[C@@H](CO)C(=O)N[C@@H](CC(C)C)C(=O)N[C@@H](CCCNC(=N)N)C(=O)N[C@@H](Cc1c[nH]cn1)C(=O)N[C@@H](Cc1ccc(O)cc1)C(=O)N[C@@H](Cc1ccc(O)cc1)C(=O)N[C@@H](CC(N)=O)C(=O)N[C@@H](Cc1c[nH]c2ccccc12)C(=O)N[C@@H](CC(C)C)C(=O)N[C@H](C(=O)N[C@@H](CCCNC(=N)N)C(=O)N[C@@H](CCC(N)=O)C(=O)N[C@@H](CCCNC(=N)N)C(=O)N[C@@H](Cc1ccc(O)cc1)C(N)=O)[C@@H](C)O)C(C)C` [Compound 34, N{alpha-4}-(3-methylbutanoyl)-N{epsilon-7}-(6-[(4S)-4-carboxy-4-(17-carboxyheptadecanamido)butanamido]hexanoyl)[4A,7K,9E,14A,18Q,19Q,22V,28Y,30W,31L]-hPYY(4-36)], the inhibition constant Ki – broadly, a measure of affinity in units of concentration, obtained from inhibition or displacement – in data set [1] turned out to be 3.53 nM. Also, in “Solubility determination”, the “Sol6” value came out at 9.2 mg/mL and the “Sol7” value worked out at 9.1 mg/mL.
Regarding `CC(C)CC(=O)N[C@@H](C)C(=O)N1CCC[C@H]1C(=O)N[C@@H](C)C(=O)N[C@@H](CCCCNC(=O)CCCCCNC(=O)CC[C@H](NC(=O)CCCCCCCCCCCCCCCCC(=O)O)C(=O)O)C(=O)N1CCC[C@H]1C(=O)N[C@@H](CCC(=O)O)C(=O)N[C@@H](C)C(=O)N[C@@H](CC(=O)O)C(=O)N[C@@H](C)C(=O)N[C@@H](CO)C(=O)N1CCC[C@H]1C(=O)N[C@@H](CCC(=O)O)C(=O)N[C@@H](CCC(=O)O)C(=O)N[C@@H](CC(C)C)C(=O)N[C@@H](CCC(N)=O)C(=O)N[C@@H](CCCNC(=N)N)C(=O)N[C@@H](Cc1ccc(O)cc1)C(=O)N[C@@H](Cc1ccc(O)cc1)C(=O)N[C@H](C(=O)N[C@@H](CCC(=O)O)C(=O)N[C@@H](CC(C)C)C(=O)N[C@@H](CCCNC(=N)N)C(=O)N[C@@H](Cc1c[nH]cn1)C(=O)N[C@@H](Cc1ccc(O)cc1)C(=O)N[C@@H](Cc1ccc(O)cc1)C(=O)N[C@@H](CC(N)=O)C(=O)N[C@@H](Cc1c[nH]c2ccccc12)C(=O)N[C@@H](CC(C)C)C(=O)N[C@H](C(=O)N[C@@H](CCCNC(=N)N)C(=O)N[C@@H](CCC(N)=O)C(=O)N[C@@H](CCCNC(=N)N)C(=O)N[C@@H](Cc1ccc(O)cc1)C(N)=O)[C@@H](C)O)C(C)C` [Compound 94, N{alpha-4}-(3-methylbutanoyl)-N{epsilon-7}-(6-[(4S)-4-carboxy-4-(17-carboxyheptadecanamido)butanamido]hexanoyl)-[4A,6A,7K,9E,10A,18Q,22V,23E,28Y,30W,31L]-hPYY(4-36)], in data set [1], the inhibition constant Ki is 0.93 nM. Besides, in “Solubility determination”, the “Sol6” value turned out to be 8.4 mg/mL and the “Sol7” value is 8.9 mg/mL.
Consider `CC(C)CC(=O)N[C@@H](C)C(=O)N1CCC[C@H]1C(=O)N[C@@H](CCC(=O)O)C(=O)N[C@@H](CCCCNC(=O)CCCCCNC(=O)CC[C@H](NC(=O)CCCCCCCCCCCCCCCCC(=O)O)C(=O)O)C(=O)N1CCC[C@H]1C(=O)N[C@@H](CCC(=O)O)C(=O)N[C@@H](C)C(=O)N[C@@H](CC(=O)O)C(=O)N[C@@H](C)C(=O)N[C@@H](CO)C(=O)N1CCC[C@H]1C(=O)N[C@@H](CCC(=O)O)C(=O)N[C@@H](CCC(=O)O)C(=O)N[C@@H](CC(C)C)C(=O)N[C@@H](CCC(N)=O)C(=O)N[C@@H](CCCNC(=N)N)C(=O)N[C@@H](Cc1ccc(O)cc1)C(=O)N[C@@H](Cc1ccc(O)cc1)C(=O)N[C@H](C(=O)N[C@@H](CCC(=O)O)C(=O)N[C@@H](CC(C)C)C(=O)N[C@@H](CCCNC(=N)N)C(=O)N[C@@H](Cc1c[nH]cn1)C(=O)N[C@@H](Cc1ccc(O)cc1)C(=O)N[C@@H](Cc1ccc(O)cc1)C(=O)N[C@@H](CC(N)=O)C(=O)N[C@@H](Cc1c[nH]c2ccccc12)C(=O)N[C@@H](CC(C)C)C(=O)N[C@H](C(=O)N[C@@H](CCCNC(=N)N)C(=O)N[C@@H](CCC(N)=O)C(=O)N[C@@H](CCCNC(=N)N)C(=O)N[C@@H](Cc1ccc(O)cc1)C(N)=O)[C@@H](C)O)C(C)C` [Compound 171, N{alpha-4}-(3-methylbutanoyl)-N{epsilon-7}-(6-[(4S)-4-carboxy-4-(17-carboxyheptadecanamido)butanamido]hexanoyl)-[4A,7K,9E,10A,18Q,22V,23E,28Y,30W,31L]-hPYY(4-36)], for which the Ki in data set [1] worked out at 2.83 nM. For the same molecule, in “Solubility determination”, the “Sol6” value came to 10.0 mg/mL and the “Sol7” value was 10.0 mg/mL.
As for `CC[C@H](C)[C@H](NC(=O)[C@H](CCC(=O)O)NC(=O)[C@H](CCC(=O)O)NC(=O)[C@@H]1CCCN1C(=O)[C@H](CCC(=O)O)NC(=O)[C@H](C)NC(=O)[C@H](C)NC(=O)[C@H](C)NC(=O)[C@H](CCC(=O)O)NC(=O)[C@@H]1CCCN1C(=O)[C@H](CCCCNC(=O)CCCCCNC(=O)CC[C@H](NC(=O)CCCCCCCCCCCCCCCCC(=O)O)C(=O)O)NC(=O)[C@H](CCC(=O)O)NC(=O)[C@@H]1CCCN1C(=O)[C@H](C)NC(=O)CC(C)C)C(=O)N[C@@H](CCC(N)=O)C(=O)N[C@@H](CCCNC(=N)N)C(=O)N[C@@H](Cc1ccc(O)cc1)C(=O)N[C@@H](Cc1ccc(O)cc1)C(=O)N[C@H](C(=O)N[C@@H](C)C(=O)N[C@@H](CC(C)C)C(=O)N[C@@H](CCCNC(=N)N)C(=O)N[C@@H](Cc1c[nH]cn1)C(=O)N[C@@H](Cc1ccc(O)cc1)C(=O)N[C@@H](Cc1ccc(O)cc1)C(=O)N[C@@H](CC(N)=O)C(=O)N[C@@H](Cc1c[nH]c2ccccc12)C(=O)N[C@@H](CC(C)C)C(=O)N[C@H](C(=O)N[C@@H](CCCNC(=N)N)C(=O)N[C@@H](CCC(N)=O)C(=O)N[C@@H](CCCNC(=N)N)C(=O)N[C@@H](Cc1ccc(O)cc1)C(N)=O)[C@@H](C)O)C(C)C` [Compound 135, N{alpha-4}-(3-methylbutanoyl)-N{epsilon-7}-(6-[(4S)-4-carboxy-4-(17-carboxyheptadecanamido)butanamido]hexanoyl)-[4A,7K,9E,10A,11A,13E,17I,18Q,22V,23A,28Y,30W,31L]-hPYY(4-36)] (Isovaleryl-APEK([Ahx-γGlu-C18 diacid])PEAAAEPEEIQRYYVALRHYYNWLTRQRY-NH2), the inhibition constant (Ki) in data set [1] came to 3.83 nM. In “Solubility determination”, the “Sol6” value is 0.2 mg/mL and the “Sol7” value was above 10.0 mg/mL.

The values above are taken from patent US12391737B2, “Soluble NPY2 receptor agonists” (Boehringer Ingelheim International GmbH, priority 2020, dated 2025).
